Measurements from US20250017942A1, “Prevention and treatment of osteoarticular diseases by inhibiting acetylcholinesterase” (priority 2021, published 2025).
Where a name gives a salt, the structure may show the parent alone.

Legend:
[1] = biological target: AChE (rat cortex homogenate) (Rattus norvegicus, UniProt P37136); experiment: biochemical; assay type: biochemical; conditions: for IC50: rat cortex homogenate, in the presence of ethopropazine as a specific BuChE inhibitor
ATDC5 cells = experiment: IL-1β-stimulated ATDC5 cells, marker expression by qPCR; assay type: cell-based, mouse; conditions: 10 ng/ml IL-1β, 24 h, qPCR (FIG. 3A)
RAW 264.7 cells = experiment: RANKL-induced osteoclastogenesis of RAW 264.7 cells; assay type: cell-based, mouse; conditions: RAW 264.7, RANKL 15 ng/ml 3 days, 0.1, 0.5 and 1 μM (FIG. 9)

Chain of AChE (rat cortex homogenate) (P37136 32-614): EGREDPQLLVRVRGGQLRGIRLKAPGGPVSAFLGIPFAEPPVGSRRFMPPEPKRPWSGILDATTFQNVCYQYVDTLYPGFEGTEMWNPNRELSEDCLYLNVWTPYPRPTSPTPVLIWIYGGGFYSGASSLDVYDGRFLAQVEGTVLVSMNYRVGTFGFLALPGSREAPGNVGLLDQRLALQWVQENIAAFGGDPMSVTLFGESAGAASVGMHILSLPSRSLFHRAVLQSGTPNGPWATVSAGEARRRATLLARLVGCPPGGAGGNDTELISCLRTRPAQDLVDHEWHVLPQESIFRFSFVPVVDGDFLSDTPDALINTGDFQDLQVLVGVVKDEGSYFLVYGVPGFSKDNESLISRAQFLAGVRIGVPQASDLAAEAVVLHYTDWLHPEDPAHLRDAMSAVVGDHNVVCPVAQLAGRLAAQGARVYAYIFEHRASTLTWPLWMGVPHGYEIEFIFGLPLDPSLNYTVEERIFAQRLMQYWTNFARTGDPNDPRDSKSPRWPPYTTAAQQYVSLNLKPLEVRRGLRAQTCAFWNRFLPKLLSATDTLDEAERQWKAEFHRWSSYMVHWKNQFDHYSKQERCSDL

O=c1ccc2c([nH]1)CCCC2NCCCCCCCCCCCNC1CCCc2[nH]c(=O)ccc21 (stereo not drawn) [E11E] showed an IC50 [1] of 84 ± 5 nM.
For O=c1ccc2c([nH]1)CCC[C@@H]2NCCCCCCCCCCCCN[C@H]1CCCc2[nH]c(=O)ccc21 [E12E, (S,S)-(−)-N, N′-di-5′-(5′, 6′7′,8′-tetrahydroquinolin-2-onyl)-1,12-diaminododecane, bis-hydrochloride], the “Potency in inhibiting rat brain AChE relative to HA” value [1] was “about twice as potent as HA”, the “Potency in inhibiting rat brain AChE relative to tacrine” value [1] was “about 4.4 times” and the “Pro-inflammatory cytokine expression after IL-1β stimulation” value (ATDC5 cells) was “down-regulating key pro-inflammatory cytokines including TNF-alpha”. For the same compound, the Osteoclastogenesis (RAW 264.7 cells) was “suppressed osteoclastogenesis in a dose-dependent manner”.
Work on O=c1ccc2c([nH]1)CCCC2NCCCCCCCCCCCCCNC1CCCc2[nH]c(=O)ccc21 (stereo not drawn) [E13E] yielded an IC50 [1] of 52 ± 9 nM.
